“Also recorded” adds a separate entry of the source. Like-named read-outs stand apart in the source and are kept apart here.
Key:
[1] = tested on: HIV-1 in U1 cells (TNF-α mediated expression); assay: TNF-α-mediated HIV-1 p24 antigen expression in chronically infected U1 cells; assay type: cell-based, HIV-1; human cells; conditions: for suppression of TNFα-mediated HIV-1 expression (p24): in words
Experimental: (§1) Another assay examined the effect of compounds on chronically HIV-1 infected U1 cells. A relatively high density of U1 cells at 10^4 cells/well were incubated in the absence or presence of compounds for 4 days. HIV-1 p24 antigen expression in the culture media was measured by using a ELISA kit (Abbott). Alternatively, U1 cells were plated at a relatively low density of 2×10^3 cell/well plus or minus TNF at 20 pg/ml and plus or minus compounds. The expression of HIV-1 p24 antigen in culture media was measured by ELISA four days later.
(§2) Stable cell lines 293tar, 293tat and 293tat2 were generated by transfections using conditions described in (Tate et al., FASEB J. 4:227-231, 1990) with the plasmid pHIV.AP alone or along with either pHIV.tat or pSV2tat72, respectively. The assay of HIV-1 p24 antigen expression in the chronically HIV-1-infected promonocytic line U1 after 4 days and in acutely infected peripheral blood lymphocytes (PBL) after 7 days were described (Peterson et al., J. Clin. Invest. 89:574-580, 1992, and Brighty et al., Proc Natl. Acad. Sci. USA 88:7802-7805, 1991).
(§3) This example illustrates that CT2576 inhibited both constitutive and cytokine-induced HIV expression in a chronically-infected U1 cell line. A chronically HIV-1 infected human promonocyte cell line, U1 (Poli et al., J. Exp. Med. 172:151-158, 1990), was used as a model to see if the inhibitory effect of CT2576 on HIV-LTR driven reporter gene expression could be extended to block HIV replication per se in infected cells. TNF-α and IL-6 have been reported to upregulate the expression of HIV-1 in U1 cells (Poli et al., Proc Natl. Acad. Sci. USA 91:108-112, 1994). U1 cells were plated onto 24-well microtiter plates to study the dose-response effect of CT2576 on the constitutive (10^4 cells/well), TNF-α or IL-6 mediated (2×10^3 cells/well) expression of HIV-1. CT2576 was capable of inhibiting the constitutive, the TNF-α mediated, as well as the IL-6 mediated expression of HIV in U1 cells with an IC50 value of less than 1 μM (FIG. 17).

293-EBNA cells = assay: Viability of 293-EBNA cells, Alamar Blue; assay type: cell-based, human
In short: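 Viability read with Alamar Blue, a vital dye reduced by mitochondrial dehydrogenases to a soluble product. Signal quantified as the absorbance difference between A570 and A600.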

U1 cells = assay: Cytotoxicity in U1 cells; assay type: cell-based, human
Excerpt: We studied the effect of CT-2576 on HIV expression in a chronically HIV-1 infected promonocytic U1 cell line (Folks et al., Science 238:800-802, 1987). […] TNF-α and other cytokines can induce HIV expression in U1 cells. U1 cells also express HIV constitutively when grown to a relatively high density. […] An inhibitor of viral reverse transcriptase is expected to only protect new cells from becoming infected but not to affect viral production from cells already infected with HIV. […] While TNF-α induces HIV expression through activation of NFκB, IL-6 and IL-1 also stimulates HIV expression through other pathways independent of NFκB activation in U1 cells.

[2] = tested on: HIV-1 in U1 cells (constitutive expression); assay: Constitutive HIV-1 p24 antigen expression in chronically infected U1 cells; assay type: cell-based, HIV-1; human cells; conditions: for suppression of constitutive HIV-1 expression (p24): U1 cells plated at high density, in words
Experimental: as §1, §2, §3

AP mRNA in 293tat cells = assay: AP mRNA level in 293tat cells, Northern blot; assay type: cell-based, human; conditions: with TNF-α or IL-1β
Experimental: Nuclear extracts (A) from 293tat cells were tested by EMSA for activation of NFκB. A radiolabeled 40-mer covering the NFκB sequences in the HIV promoter was used as a probe. Cells were incubated with CT2576 at 12 μM, human TNF-α at 40 ng/ml or IL-1β at 1 ng/ml, or pre-incubated for 30 min. with CT2576 and then stimulated with TNF-α or IL-1β for 18 hr prior to making extracts. RNA was extracted from 293tat cells (B) after treatment with CT2576 without or with TNF-α or IL-1β for 18 hr. Northern blots analysis were performed using probes derived from AP cDNA and G3PDH cDNA as a control for normalization of mRNA level. AP activity was determined in cell supernatants from the various samples.
NFκB binding activity in nuclear extracts (Dignam et al., Nucleic Acids Res. 11:1475-1489, 1983) of cells was measured by electrophoretic mobility-shift assay (EMSA) (Carthew et al., Cell 43:439-448, 1985) using 5'-labeled double-stranded synthetic DNA with two NF-κB motifs. Northern blot analysis was performed with total RNA run on 1% agarose/formaldehyde gel and probed with ^32 P-labeled cDNA of AP and glyceraldehyde-3-phosphate dehydrogenase (G3PDH).

| SMILES | suppression of TNFα-mediated HIV-1 expression (p24) ([1]; U1 cells) | cytotoxic effect on 293-EBNA cells (Alamar Blue) (293-EBNA cells) | cytotoxicity in U1 cells at 25 μM (U1 cells; 25 μM, FIG. 12 bottom panel, TNFα) | suppression of constitutive HIV-1 expression (p24) [2] | AP transcript / mRNA steady-state level (AP mRNA in 293tat cells) | IC50 ([1]; Human immunodeficiency virus 1, 96 h, read-out: IC50, TNF-α mediated HIV expression, U1 cells, 4 days) [nM] | IC50 ([1]; U1 cells, 4 days, read-out: IC50, TNF-α mediated HIV expression) [nM] | toxic concentration (not toxic at concentrations up to), 293-EBNA cells (293-EBNA cells) [µM] | cytotoxicity in U1 cells, trypan-blue dye exclusion (U1 cells; trypan-blue dye exclusion assay) | IC50 ([2]; Human immunodeficiency virus 1, 96 h, read-out: IC50, constitutive HIV expression, U1 cells, 4 days) [nM] | IC50 ([2]; read-out: IC50, constitutive HIV expression, U1 cells, 4 days) [nM] |
| --- | --- | --- | --- | --- | --- | --- | --- | --- | --- | --- | --- |
| CCCCCCCCNCC(O)CCCCCCCCCN1C(=O)CCN(C)C1=O (stereo not shown) [CT1829, 3-(11-octylamino-10-hydroxyundecyl)-1-methyldihydrouracil] | suppressed HIV-1 expression | no significant cytotoxic effect | some cytotoxicity | suppressed constitutive HIV-1 expression |  |  |  |  |  |  |  |
| CCCCCCCCNCC(O)CCCCCCCCCn1c(=O)c2c(ncn2C)n(C)c1=O (stereo not shown) [CT2576, 1-(11-octylamino-10-hydroxyundecyl)-3,7-dimethylxanthine] | suppressed HIV-1 expression; also recorded: the most effective; also recorded: inhibited |  |  | the most effective; also recorded: inhibited; also recorded: suppressed constitutive HIV-1 expression | increase in mRNA level; also recorded: did not block expression at the transcription stage | ~1000 | < 1000 | > 35 | no cytotoxicity | ~1000 | < 1000 |
